ChEMBL document CHEMBL1141047, “4-Phenyl-1,2,3,6-tetrahydropyridine, an excellent fragment to improve the potency of PARP-1 inhibitors” (Bioorg Med Chem Lett, 2005)

Target: Poly [ADP-ribose] polymerase 1 (Homo sapiens, UniProt P09874)
Sequence (P09874 whole entry): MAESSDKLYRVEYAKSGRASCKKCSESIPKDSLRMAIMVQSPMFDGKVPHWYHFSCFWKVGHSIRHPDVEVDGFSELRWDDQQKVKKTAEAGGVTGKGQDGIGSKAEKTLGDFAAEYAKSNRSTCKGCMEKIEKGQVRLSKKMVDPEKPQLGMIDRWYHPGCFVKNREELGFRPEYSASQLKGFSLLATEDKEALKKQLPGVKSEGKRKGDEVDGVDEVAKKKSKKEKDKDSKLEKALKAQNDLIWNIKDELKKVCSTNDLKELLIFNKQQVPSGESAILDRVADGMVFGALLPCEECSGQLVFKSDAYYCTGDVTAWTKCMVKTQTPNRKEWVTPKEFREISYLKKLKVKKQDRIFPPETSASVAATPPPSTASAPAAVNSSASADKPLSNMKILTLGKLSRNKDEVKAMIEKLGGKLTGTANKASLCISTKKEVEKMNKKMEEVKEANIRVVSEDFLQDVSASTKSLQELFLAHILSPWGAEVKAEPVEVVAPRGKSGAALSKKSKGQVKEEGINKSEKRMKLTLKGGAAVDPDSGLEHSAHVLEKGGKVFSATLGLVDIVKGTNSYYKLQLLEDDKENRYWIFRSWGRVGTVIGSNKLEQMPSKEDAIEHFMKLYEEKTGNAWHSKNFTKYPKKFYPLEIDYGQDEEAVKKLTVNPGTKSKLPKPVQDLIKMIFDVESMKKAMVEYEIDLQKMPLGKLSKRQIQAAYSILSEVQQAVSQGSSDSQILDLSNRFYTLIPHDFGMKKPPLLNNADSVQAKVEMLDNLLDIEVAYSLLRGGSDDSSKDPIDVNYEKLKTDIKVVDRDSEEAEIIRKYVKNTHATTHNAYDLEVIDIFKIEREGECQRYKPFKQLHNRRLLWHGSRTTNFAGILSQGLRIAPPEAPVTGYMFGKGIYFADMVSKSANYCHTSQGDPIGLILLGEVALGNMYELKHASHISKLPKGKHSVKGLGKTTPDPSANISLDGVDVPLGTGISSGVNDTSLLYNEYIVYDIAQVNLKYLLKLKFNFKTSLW
Description: In vitro inhibitory concentration against Poly(ADP-ribose) polymerase 1

Question: With `CC1(C)CCC2NC(CCCN3CC=C(c4ccccc4)CC3)=NC(=O)C2C1` (centres undefined) as the compound, how does the IC50 read?
Answer: > 10000 nM

Question: For `CN1CCC2NC(CCCN3CC=C(c4ccccc4)CC3)=NC(=O)C2C1` (centres undefined), which IC50 is on record?
Answer: 6100 nM

Question: With `O=C1N=C(CCCN2CC=C(c3ccccc3)CC2)NC2CCNCC12` (centres undefined) as the compound, how does the IC50 read?
Answer: 8600 nM

Question: `CC1CCC2NC(CCCN3CC=C(c4ccccc4)CC3)=NC(=O)C2C1` (centres undefined) was tested. Which IC50 did it give?
Answer: 274 nM

Question: With `O=C1N=C(CCCN2CC=C(c3ccccc3)CC2)NC2CCOCC12` (centres undefined) as the compound, how does the IC50 read?
Answer: 200 nM

Question: `Oc1nnc(CCCCCN2CCOCC2)c2ccccc12` was tested. Which IC50 did it give?
Answer: 119 nM

Question: With `O=C1N=C(CCCN2CC=C(c3ccccc3)CC2)NC2CCCCC12` (centres undefined) as the compound, how does the IC50 read?
Answer: 20 nM

Question: `O=C1NC(CCCN2CC=C(c3ccccc3)CC2)=NC2CCCC12` (centres undefined) was tested. Which IC50 did it give?
Answer: 249 nM

Question: How did the IC50 turn out when `O=c1[nH]c2cc(CN3CCOCC3)ccc2c2ccccc12` was run?
Answer: 23 nM

Question: For `CC1=NC(=O)C2CSCCC2N1` (centres undefined), which IC50 is on record?
Answer: 467 nM

Question: For `O=C1N=C(CCCN2CC=C(c3ccccc3)CC2)NC2CCCCCC12` (centres undefined), which IC50 is on record?
Answer: 495 nM

Question: How did the IC50 turn out when `O=C1NC(CCCN2CC=C(c3ccccc3)CC2)=NC2CCSCC12` (centres undefined) was run?
Answer: 8.9 nM

Question: How did the IC50 turn out when `O=c1[nH]nc(CCCCN2CCOCC2)c2ccccc12` was run?
Answer: 950 nM

Question: Which IC50 does the source give for `O=c1[nH]c2ccc(CCCCN3CC=C(c4ccccc4)CC3)cc2c2ccccc12` here?
Answer: 119 nM
